# Source: US9382213B2, “Heterocyclic and cyclic analogs of propargyl-linked inhibitors of dihydrofolate reductase” (PROMILIAD BIOPHARMA INC., priority 2014, dated 2016)
# Like-named read-outs stand apart in the source and are kept apart here.
# How the values were obtained:
# [1] = system: C. glabrata (strain NCCLS84); assay: Antifungal activity (MIC), XTT cell viability; type: cell-based, Candida glabrata; conditions: strain NCCLS84, GSB media
# Method: (§1) Stock cultures of C. albicans (strain SC5314) or C. glabrata (strain NCCLS84), thawed from storage in 50% glycerol at −80° C., were streaked on YM agar plates and grown at 37° C. for 48 hours. Isolated colonies from the plate were suspended in 100 mL of glucose-salt-biotin (GSB) media containing ammonia chloride (2 g), potassium phosphate (0.35 g), magnesium sulfate (0.24 g), sodium citrate (0.3 g), piperazine-N,N′-bis[2-ethanesulfonic acid] (3.4 g), biotin (40 mg) and glucose (20 g) in 1 L of water at a final pH of 7.1. […] An aliquot was removed from the shake flask culture, diluted to between 1×10^5 and 1×10^6 cells/mL in GSB media, and added to 96 well test plates (100 μL per well) containing test compounds dispensed in DMSO (1 μL). Amphotericin B and itraconazole were used as controls. C. albicans cell viability was determined by the addition of Alamar Blue (10 μL) to each well after a 24 hour incubation period. […] The XTT Cell Proliferation kit (ATCC) was used as an alternative. Tetrazolium dye, XTT, along with an electron activating reagent (50 μL) was added to 96 well plates and incubated for 24 hours at 37° C. Cell viability is indicated by a color change from a dark orange to a bright orange color that can be detected at […].
# hDHFR = biological target: T1, hDHFR (Homo sapiens, UniProt P00374); assay: DHFR enzyme inhibition (NADPH consumption at 340 nm), human DHFR; type: biochemical
# T1 sequence (P00374 1-187): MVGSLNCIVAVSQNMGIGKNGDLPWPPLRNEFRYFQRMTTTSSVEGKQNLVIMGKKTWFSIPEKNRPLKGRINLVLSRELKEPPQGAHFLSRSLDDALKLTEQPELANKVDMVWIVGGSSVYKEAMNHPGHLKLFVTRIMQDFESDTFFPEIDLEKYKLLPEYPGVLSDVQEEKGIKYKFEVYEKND
# Method: (§2) Enzyme inhibition was determined by monitoring the consumption of NADPH at 340 nm for one minute. Reactions were performed with 20 mM TES pH 7.0, 50 mM KCl, 10 mM 2-mercaptoethanol, 0.5 mM EDTA and 1 mg/mL bovine serum albumin. Saturating concentrations of cofactor (100 μM NADPH) and substrate (100 μM dihydrofolate) were used with a limiting concentration of enzyme. All assays were conducted in triplicate at 25° C.
# Human MCF-10 = assay: Mammalian cell cytotoxicity; type: cell-based
# [2] = system: C. albicans (strain SC5314); assay: Antifungal activity (MIC), Alamar Blue cell viability; type: cell-based, Candida albicans; conditions: strain SC5314, GSB media, Alamar Blue after 24 hour incubation; for MIC: Candida albicans, SC5314, 24 h
# Method: as §1
# Kinetic solubility = type: physicochemical; conditions: water, 0.2% DMSO, room temperature 30 min, HPLC
# Method: Compounds were initially dissolved as […] dimethyl sulfoxide (DMSO) solutions and diluted in filtered water in the presence or absence of 200 μg/ml methylcellulose (METHOCEL A4M; Dow Corning, Midland, Mich.). Final concentration of DMSO of all samples is 0.2%. All samples were incubated at room temperature for 30 min and centrifuged for 10 min at 15,000 rpm. Supernatant of the samples were analyzed by reversed phase HPLC. The mobile phase consisted of 50% acetonitrile (ACN) and 50% potassium phosphate buffer (50 mM, pH 7.0), using an isocratic flow rate of 1.5 ml/min. Solubility was determined as the maximal concentration for which absorption is linearly related to the log of the concentration.
# CgDHFR = biological target: T2, CgDHFR (Candida glabrata, UniProt Q6FPH0); assay: DHFR enzyme inhibition (NADPH consumption at 340 nm), C. glabrata DHFR; type: biochemical; conditions: 100 μM NADPH, 100 μM dihydrofolate, pH 7.0, 25° C., triplicate
# T2 construct: made in house
# T2 sequence (Q6FPH0 entry or part of it): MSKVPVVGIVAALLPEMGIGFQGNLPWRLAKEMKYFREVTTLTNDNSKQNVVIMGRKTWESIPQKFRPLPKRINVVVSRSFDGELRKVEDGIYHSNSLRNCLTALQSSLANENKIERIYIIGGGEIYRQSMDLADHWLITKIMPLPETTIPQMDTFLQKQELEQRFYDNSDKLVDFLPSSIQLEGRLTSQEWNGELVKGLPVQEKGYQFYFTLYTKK
# Method: (§3) Med. Chem., 17:4866-4872 (2009)). Crystallization of the protein with ligand also followed previously described procedures (Paulsen et al 2011). Data were collected at Brookhaven National Laboratory, beamline X4A (CaDHFR) or X4C (CgDHFR). Molecular replacement was used to determine all three structures. Initial phase information was obtained using Phaser; electron density and model building used Coot. Refinement was carried out with Refmac 5 as part of the CCP4 package. Procheck was used to assess model quality.
# as §2
# CaDHFR = biological target: T3, CaDHFR (Candida albicans, UniProt P22906); assay: DHFR enzyme inhibition (NADPH consumption at 340 nm), C. albicans DHFR; type: biochemical
# T3 construct: made in house
# T3 sequence (P22906 1-192): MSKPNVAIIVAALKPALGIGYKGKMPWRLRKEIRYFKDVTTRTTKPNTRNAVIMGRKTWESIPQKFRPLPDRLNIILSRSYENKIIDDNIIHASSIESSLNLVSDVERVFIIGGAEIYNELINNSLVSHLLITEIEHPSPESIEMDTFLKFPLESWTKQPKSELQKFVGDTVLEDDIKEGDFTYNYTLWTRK
# Method: as §3, §2
# [3] = 100 μM NADPH, 100 μM dihydrofolate, pH 7.0, 25° C., triplicate
# [4] = MCF10, Human MCF-10 cells, read-out: IC50 Human MCF-10
Compound,MIC C. glabrata [1],IC50 (hDHFR; [3]),IC50 (Human MCF-10; [4]),MIC [2],MIC C. albicans [2],solubility (Kinetic solubility),melting point,IC50 (CgDHFR),IC50 (CaDHFR; [3]),"IC50 (Human MCF-10; Homo sapiens, MCF10, read-out: IC50 Human MCF-10)",MIC ([1]; Nakaseomyces glabratus),IC50 (CaDHFR; pH 7),IC50 (hDHFR; pH 7)
"CCc1nc(N)nc(N)c1C#CC(C)c1cnc(-c2ccccc2)nc1 (centres unmarked) [Compound 48, 6-Ethyl-5-[3-(2-phenyl-pyrimidin-5-yl)-but-1-ynyl]-pyrimidine-2,4-diamine]",0.78 µg/mL,180 nM,216000 nM,0.2 to 0.78 µg/mL,0.19 µg/mL,60 µg/mL,161.3 to 162.8 °C,22 nM,37 nM,–,–,–,–
"CCc1nc(N)nc(N)c1C#CC(C)c1ccc(-c2ccc(C(=O)OC)cc2)cc1OC (centres unmarked) [Compound 34, 4′-[3-(2,4-Diamino-6-ethyl-pyrimidin-5-yl)-1-methyl-prop-2-ynyl]-3′-methoxy-biphenyl-4-carboxylic acid methyl ester]",–,49 nM,96000 nM,–,–,–,168.2 to 170.8 °C,–,46 nM,–,–,–,–
"CCc1nc(N)nc(N)c1C#CC(C)c1ccc(-c2ccc(O)cc2)cc1OC (centres unmarked) [Compound 30, 4′-[3-(2,4-Diamino-6-ethyl-pyrimidin-5-yl)-1-methyl-prop-2-ynyl]-3′-methoxy-biphenyl-4-ol]",–,136 nM,–,–,–,–,188.1 to 189.3 °C,–,39 nM,148000 nM,–,–,–
"CCc1nc(N)nc(N)c1C#CC(C)c1ccc(-c2ccc(C)cc2)nc1 (centres unmarked) [Compound 47, 6-Ethyl-5-[3-(6-p-tolyl-pyridin-3-yl)-but-1-ynyl]-pyrimidine-2,4-diamine]",0.2 µg/mL,625 nM,–,0.2 to 0.78 µg/mL,0.39 µg/mL,15 µg/mL,144 to 146.1 °C,27 nM,–,–,0.2 to 0.78 µg/mL,49 nM,–
"CCc1nc(N)nc(N)c1C#CC(C)c1ccc(-c2ccc(C#N)cc2)cc1OC (centres unmarked) [Compound 32, 4′-[3-(2,4-Diamino-6-ethyl-pyrimidin-5-yl)-1-methyl-prop-2-ynyl]-3′-methoxy-biphenyl-4-carbonitrile]",–,477 nM,50000 nM,–,–,–,130.9 to 133.1 °C,–,50 nM,–,–,–,–
"CCc1nc(N)nc(N)c1C#CC(C)c1ccc(-c2ccc(OC(N)=O)cc2)cc1OC (centres unmarked) [Compound 33, Carbamic acid 4′-[3-(2,4-diamino-6-ethyl-pyrimidin-5-yl)-1-methyl-prop-2-ynyl]-3′-methoxy-biphenyl-4-yl ester]",–,170 nM,–,–,–,–,–,–,18 nM,–,–,–,–
"CCc1nc(N)nc(N)c1C#CC(C)c1ccc(-c2ccc(N(C)C)cc2)cc1OC (centres unmarked) [Compound 35, 5-[3-(4′-Dimethylamino-3-methoxy-biphenyl-4-yl)-but-1-ynyl]-6-ethyl-pyrimidine-2,4-diamine]",–,–,–,–,–,–,135.2 to 136.1 °C,–,–,–,–,64 nM,147 nM
"CCc1nc(N)nc(N)c1C#CC(C)c1ccc(-c2ccccc2)nc1 (centres unmarked) [Compound 46, 6-Ethyl-5-[3-(6-phenyl-pyridin-3-yl)-but-1-ynyl]-pyrimidine-2,4-diamine]",0.78 µg/mL,688 nM,–,0.2 to 0.78 µg/mL,0.39 µg/mL,20 µg/mL,–,23 nM,–,–,–,–,–
